Measured values published in US6500817B1, “Thiazolyl urea derivatives and their utilization as antiviral agents” (Bayer Aktiengesellschaft, priority 1999, dated 2002).

| SMILES | melting point |
| --- | --- |
| CCOc1ccc(NC(=O)N(C)c2nc(Cl)c(S(=O)(=O)N(C)C)s2)cc1 | 215 °C |
| CCCN(C(=O)Nc1ccc(N2CCOCC2)cc1)c1nc(C)c(S(=O)(=O)NC)s1 | 179 °C |
| CCCOc1ccc(NC(=O)N(C)c2nc(C)c(S(=O)(=O)NC)s2)cc1 | 161 °C |
| CCOc1ccc(NC(=O)N(C)c2nc(C)c(S(=O)(=O)NCc3cccnc3)s2)cc1 | 158 °C |
| CCOc1ccc(NC(=O)N(Cc2nc3ccccc3[nH]2)c2nc(C)c(S(=O)(=O)NC)s2)cc1 | 197 °C |
| CCOc1ccc(NC(=O)N(CCn2ccnn2)c2nc(C)c(S(=O)(=O)NC)s2)cc1 | 188 °C |
| CCc1nc(N(C)C(=O)Nc2ccc(N3CCCC3)cc2)sc1S(=O)(=O)NC | 217 °C |
| Cc1nc(N(C)C(=O)Nc2ccc(OCC(O)CO)cc2)sc1S(=O)(=O)N(C)C (centres unmarked) | 156 °C |
| CCOc1ccc(NC(=O)N(Cc2ccncc2)c2nc(C)c(S(=O)(=O)NC)s2)cc1 | 198 °C |
| CCc1nc(N(CCCO)C(=O)Nc2ccc(N3CCCC3)cc2)sc1S(=O)(=O)NC | 161 °C |
| CCOc1ccc(NC(=O)N(CCCCO)c2nc(C)c(S(=O)(=O)NC)s2)cc1 | 164 °C |
| C=CCN(C(=O)Nc1ccc(OCC)cc1)c1nc(C)c(S(=O)(=O)NC)s1 | 162 °C |
| CN(C(=O)Nc1ccc(N2CCOCC2)c(Cl)c1)c1nc(Cl)c(S(=O)(=O)N(C)C)s1 | 203 °C |
| CCOc1ccc(NC(=O)N(CCCN)c2nc(C)c(S(=O)(=O)NC)s2)cc1.Cl | 150 °C |
| CCCN(C(=O)Nc1ccc(-c2ccccc2)cc1)c1nc(C)c(S(=O)(=O)NCC(F)(F)F)s1 | 146 °C |
| Cc1nc(N(C)C(=O)Nc2ccc(-c3cccn3C(=O)OC(C)(C)C)cc2)sc1S(=O)(=O)N(C)C | 84 °C |
| Cc1nc(N(C)C(=O)Nc2ccc(OCC(C)(C)C)cc2)sc1S(=O)(=O)N(C)C | 158 °C |
| Cc1nc(N(C)C(=O)Nc2ccc(-c3ccccc3)cc2)sc1S(=O)(=O)N(C)C | 228 °C |
| CCOc1ccc(NC(=O)N(CCC2CCCN2C)c2nc(C)c(S(=O)(=O)NC)s2)cc1 (centres unmarked) | 141 °C |
| CCCN(C(=O)Nc1ccc(-c2ccccc2)cc1)c1nc(C)c(S(=O)(=O)NCC)s1 | 160 °C |
| CCOc1ccc(NC(=O)N(CCCO)c2nc(C)c(S(=O)(=O)NC)s2)cc1 | 161 °C |
| CCOc1ccc(NC(=O)N(CCCCNC(=O)OC(C)(C)C)c2nc(C)c(S(=O)(=O)NC)s2)cc1 | 148 °C |
| CCOc1ccc(NC(=O)N(CCN(C)C)c2nc(CC)c(S(=O)(=O)NC)s2)cc1 | 208 °C |

| SMILES | melting point |
| --- | --- |
| CCOc1ccc(NC(=O)N(CCOC)c2nc(C)c(S(N)(=O)=O)s2)cc1 | 171 °C |
| CCOc1ccc(N(C)C(=O)Nc2nc(C)c(S(=O)(=O)N(C)C)s2)cc1 | 118 °C |
| CNS(=O)(=O)c1sc(N(C)C(=O)Nc2ccc(N3CCC(NC(=O)OC(C)(C)C)C3)cc2)nc1C (centres unmarked) | 188 to 189 °C (dec.) |
| CCOC(=O)N1CC2CCN(c3ccc(NC(=O)N(C)c4nc(S(=O)(=O)NC5CC5)c(C)s4)cc3)C2C1 (centres unmarked) | 140 °C |
| CSc1ccc(NC(=O)N(C)c2nc(Cl)c(S(=O)(=O)N(C)C)s2)cc1 | 194 °C |
| CNS(=O)(=O)c1sc(N(C)C(=O)Nc2ccc(C3=NOCCO3)cc2)nc1C | 192 to 194 °C |
| Cc1nc(N(C)C(=O)Nc2ccc(C3=NOCCO3)cc2)sc1S(=O)(=O)NC1CC1 | > 225 °C |
| Cc1nc(N(C)C(=O)Nc2ccc(N3CC=CC3)cc2)sc1S(=O)(=O)NC1CC1 | 186 to 187 °C |
| CCOC(=O)N1CC2CCC(c3ccc(NC(=O)N(C)c4nc(C)c(S(=O)(=O)N(C)C)s4)cc3)C2C1 (centres unmarked) | 136 to 137 °C |
| Cc1nc(N(C)C(=O)Nc2ccc(N3CCCCC3)cc2)sc1S(=O)(=O)N(C)C | 185 °C |
| COC(=O)c1ccc(NC(=O)N(C)C2=NC(Cl)C(S(=O)(=O)N(C)C)S2)cc1 (centres unmarked) | 220 °C |
| CNS(=O)(=O)c1sc(N(C)C(=O)Nc2ccc(-c3cccc(OC)c3)cc2)nc1C | 178 °C |
| CNS(=O)(=O)c1sc(N(C)C(=O)Nc2ccc(-c3ccccc3C)cc2C)nc1C | 148 °C |
| CNS(=O)(=O)c1sc(NC(=O)Nc2ccc(-c3ccccc3)cc2)nc1C | 199 °C |
| CCc1nc(N(C)C(=O)Nc2ccc(-c3ccccc3)cc2)sc1S(=O)(=O)NC | 204 °C |
| CCc1nc(N(CCCN(CC)CC)C(=O)Nc2ccc(-c3ccccc3)cc2)sc1S(N)(=O)=O | 177 °C |
| CCCN(C(=O)Nc1ccc(-c2ccccc2)cc1)c1nc(C)c(S(=O)(=O)NCCO)s1 | 156 °C |
| CCCNS(=O)(=O)c1sc(N(CCC)C(=O)Nc2ccc(-c3ccccc3)cc2)nc1C | 137 °C |
| CNS(=O)(=O)c1sc(N(CC2CCCO2)C(=O)Nc2ccc(-c3ccccc3)cc2)nc1C (centres unmarked) | 178 °C |
| COCCNS(=O)(=O)c1sc(N(C)C(=O)Nc2ccc(-c3ccccc3)cc2)nc1C | 157 °C |
| COCCN(C(=O)Nc1ccc(-c2ccccc2)cc1)c1nc(C)c(S(=O)(=O)NC2CC2)s1 | 160 °C |
| CCCN(C(=O)Nc1ccc(-c2ccccc2)cc1)c1nc(C)c(S(=O)(=O)NC)s1 | 156 °C |
| CNS(=O)(=O)c1sc(N(CCCN(C)c2ccccc2)C(=O)Nc2ccc(-c3ccccc3)cc2)nc1C | 148 °C |

| SMILES | melting point |
| --- | --- |
| CNS(=O)(=O)c1sc(N(CCOC)C(=O)Nc2ccc(N3CCCC3)cc2)nc1C | 184 °C |
| Cc1nc(N(C)C(=O)Nc2ccc(-c3ccccc3)cc2)sc1S(N)(=O)=O | 221 °C |
| Cc1nc(N(C)C(=O)Nc2ccc(N3CCOCC3)cc2)sc1S(N)(=O)=O | 225 °C |
| Cc1nc(N(CCN(C)C)C(=O)Nc2ccc(N3CCOCC3)cc2)sc1S(N)(=O)=O | 123 °C |
| CNS(=O)(=O)c1sc(N(CCN(C)C)C(=O)Nc2ccc(-c3ccccc3)cc2)nc1C | 154 °C |
| Cc1nc(N(Cc2ccncc2)C(=O)Nc2ccc(N3CCOCC3)cc2)sc1S(N)(=O)=O | 186 °C |
| Cc1nc(N(CCN(C)C)C(=O)Nc2ccc(-c3ccccc3)cc2)sc1S(N)(=O)=O | 138 °C |
| CCOc1ccc(NC(=O)N(CCN(C)C)c2nc(C)c(S(=O)(=O)NC3CC3)s2)cc1 | 168 °C |
| CNS(=O)(=O)c1sc(N(CCN(C)C)C(=O)Nc2ccc(N3CCCC3)cc2)nc1C | 188 °C |
| CCCN(C(=O)Nc1ccc(OCC)cc1)c1nc(Cl)c(S(=O)(=O)N(C)C)s1 | 132 °C |
| CCOc1ccc(NC(=O)N(C)c2nc(Cl)c(S(=O)(=O)NC3CC3)s2)cc1 | 183 °C |
| CCN(C(=O)Nc1ccc(N2CCOCC2)cc1)c1nc(Cl)c(S(=O)(=O)N(C)C)s1 | 190 °C |
| CN(C(=O)Nc1ccc(N2CCOCC2)cc1)c1nc(Cl)c(S(=O)(=O)NC2CC2)s1 | 241 °C |
| CN(C(=O)Nc1ccc(OC(F)(F)C(F)F)cc1)c1nc(Cl)c(S(=O)(=O)N(C)C)s1 | 168 °C |
| CCOc1ccc(NC(=O)N(C)c2nc(Cl)c(S(=O)(=O)NCc3ccccc3)s2)cc1 | 170 °C |
| CCOc1ccc(NC(=O)N(C)c2nc(Cl)c(S(=O)(=O)NCN3CCCCC3)s2)cc1 | 183 °C |
| Cc1nc(N(C)C(=O)Nc2ccc(N3CCOCC3)cc2)sc1S(=O)(=O)N1CCCCC1 | 206 °C |
| Cc1nc(N(C)C(=O)Nc2ccc(N3CCOCC3)cc2)sc1S(=O)(=O)N(C)C1CC1 | 198 °C |
| Cc1nc(N(C)C(=O)Nc2ccc(N3CCOCC3)cc2)sc1S(=O)(=O)NCc1ccccc1 | 216 °C |
| CCOc1ccc(NC(=O)N(C)c2nc(CC)c(S(=O)(=O)N(C)C)s2)cc1 | 176 °C |
| Cc1nc(N(C)C(=O)Nc2ccc(N3CCOCC3)cc2)sc1S(=O)(=O)NC1CC1 | 235 °C |
| CCOc1ccc(NC(=O)N(CCN2CCOCC2)c2nc(C)c(S(=O)(=O)N(C)C)s2)cc1 | 204 °C |
| CCOc1ccc(NC(=O)N(CCN(C)C)c2nc(C)c(S(=O)(=O)N(C)C)s2)cc1 | 163 °C |

| SMILES | melting point |
| --- | --- |
| Cc1nc(N(C)C(=O)Nc2ccc(N3CCOCC3)cc2)sc1S(=O)(=O)N(C)Cc1ccccn1 | 148 °C |
| CCOc1ccc(NC(=O)N(Cc2ccccc2)c2nc(C)c(S(=O)(=O)N(C)C)s2)cc1 | 187 °C |
| CCOc1ccc(NC(=O)N(Cc2ccncc2)c2nc(C)c(S(=O)(=O)N(C)C)s2)cc1 | 188 °C |
| CCOc1ccc(NC(=O)N(CC(C)C)c2nc(C)c(S(=O)(=O)N(C)C)s2)cc1 | 173 °C |
| CCOc1ccc(NC(=O)N(CCNC(C)=O)c2nc(C)c(S(=O)(=O)N(C)C)s2)cc1 | 184 °C |
| CCOc1ccc(NC(=O)N(CCOC)c2nc(C)c(S(=O)(=O)N(C)C)s2)cc1 | 162 °C |
| CCOc1ccc(NC(=O)N(C)c2nc(C)c(S(=O)(=O)N(C)CC)s2)cc1 | 163 °C |
| CCOc1ccc(NC(=O)N(C)c2nc(C)c(S(=O)(=O)NCC3CCCO3)s2)cc1 (centres unmarked) | 168 °C |
| CCOc1ccc(NC(=O)N(CCO)c2nc(C)c(S(=O)(=O)N(C)C)s2)cc1 | 160 °C |
| CCOc1ccc(NC(=O)N(CCCO)c2nc(C)c(S(=O)(=O)N(C)C)s2)cc1 | 147 °C |
| CCOc1ccc(NC(=O)N(CCNC(=O)OC(C)(C)C)c2nc(C)c(S(=O)(=O)N(C)C)s2)cc1 | 164 °C |
| CCOc1ccc(NC(=O)N(CCCNC(=O)OC(C)(C)C)c2nc(C)c(S(=O)(=O)N(C)C)s2)cc1 | 130 °C |
| CCOc1ccc(NC(=O)N(Cc2ccncc2)c2nc(C)c(S(=O)(=O)NC3CC3)s2)cc1 | 200 °C |
| CCOc1ccc(NC(=O)N(CCOC)c2nc(C)c(S(=O)(=O)NC3CC3)s2)cc1 | 164 °C |
| CCOc1ccc(NC(=O)Nc2nc(C)c(S(=O)(=O)N3CCCC3)s2)cc1 | 198 °C |
| CCOc1ccc(NC(=O)N(C)c2nc(C)c(S(=O)(=O)NCCn3ccnn3)s2)cc1 | 154 °C |
| CCOc1ccc(NC(=O)N(C)c2nc(C)c(S(=O)(=O)NC(C)C)s2)cc1 | 192 °C |
| CCOc1ccc(NC(=O)N(c2nc(C)c(S(=O)(=O)N(C)C)s2)C(C)CC)cc1 (centres unmarked) | 130 °C |
| CCc1nc(N(CCCO)C(=O)Nc2ccc(N3CCOCC3)cc2)sc1S(=O)(=O)NC | 169 °C |
| CNS(=O)(=O)c1sc(N(CCCO)C(=O)Nc2ccc(N3CCOCC3)cc2)nc1C | 181 °C |
